The test system of data set [1] is HEK293. Kind of data set: Cytotoxicity against human HEK293 cells assessed as reduction in cell viability up to 500 ug/L incubated for 24 hrs by MTT assay. The settings on record: hek293, 24 h. It is filed as cell-based. In general terms: Tetrazolium assays rely on reduction of a dye to a coloured formazan, in cell work by metabolically active cells.
Data set [2] has as its system HEK293. In words: Cytotoxicity against human HEK293 cells assessed as reduction in cell viability at 50,000 ug/L incubated for 24 hrs by MTT assay. It is filed as cell-based. The settings on record: hek293, 24 h.
The subject of data set [3] is Plasmodium falciparum. In words: Antiplasmodial activity against chloroquine-sensitive Plasmodium falciparum 3D7 assessed as inhibition of parasite growth incubated for 48 hrs by SYBR green 1 dye based fluorescence assay. It is filed as functional, organism-based.
In data set [4] the test system is Plasmodium falciparum. Kind of data set: Antiplasmodial activity against chloroquine-resistant Plasmodium falciparum W2 assessed as inhibition of parasite growth incubated for 48 hrs by SYBR green 1 dye based fluorescence assay. Format: functional, organism-based.
The mark [5] stands for this setting: Plasmodium falciparum, 3D7, 48 h.
Setting [6] is: Plasmodium falciparum, W2, 48 h.

The values below come from ChEMBL document CHEMBL4715746, “Polyvalent effect enhances diglycosidic antiplasmodial activity” (Eur J Med Chem, 2016).

For `CCN(CC)CCCC(C)Nc1ccnc2cc(Cl)ccc12` (configuration not stated) [CHLOROQUINE], the Activity result in the data set with HEK293 [1] was “Non-Toxic”; in the data set with HEK293 [2], “Toxic”.

By IC50 is commonly meant the concentration that inhibits the measured activity by half. For `CC(=O)OC[C@H]1O[C@@H](OCCCn2cc(COCC(COCc3cn(CCCO[C@@H]4O[C@H](COC(C)=O)[C@@H](O)[C@H](O)[C@H]4O[C@@H]4O[C@@H](C)[C@H](OC(C)=O)[C@@H](OC(C)=O)[C@H]4OC(C)=O)nn3)(COCc3cn(CCCO[C@@H]4O[C@H](COC(C)=O)[C@@H](O)[C@H](O)[C@H]4O[C@@H]4O[C@@H](C)[C@H](OC(C)=O)[C@@H](OC(C)=O)[C@H]4OC(C)=O)nn3)COCc3cn(CCCO[C@@H]4O[C@H](COC(C)=O)[C@@H](O)[C@H](O)[C@H]4O[C@@H]4O[C@@H](C)[C@H](OC(C)=O)[C@@H](OC(C)=O)[C@H]4OC(C)=O)nn3)nn2)[C@H](O[C@@H]2O[C@@H](C)[C@H](OC(C)=O)[C@@H](OC(C)=O)[C@H]2OC(C)=O)[C@@H](O)[C@@H]1O`, the IC50 is 28.1 µM with Plasmodium falciparum [3] (setting [5]) and 25.2 µM in the data set on Plasmodium falciparum [4] (setting [6]).

As to `CO[C@@H]1O[C@H](COC(C)=O)[C@@H](O)[C@H](O)[C@H]1O[C@@H]1O[C@@H](C)[C@H](OC(C)=O)[C@@H](OC(C)=O)[C@H]1OC(C)=O`, the results for the IC50 with Plasmodium falciparum [3] (setting [5]) and in the data set with Plasmodium falciparum [4] (setting [6]) were 143 µM and 100 µM, respectively.

`CC(=O)OC[C@H]1O[C@@H](OCCCN=[N+]=[N-])[C@H](O[C@@H]2O[C@@H](C)[C@H](OC(C)=O)[C@@H](OC(C)=O)[C@H]2OC(C)=O)[C@@H](O)[C@@H]1O`: the Activity entry with HEK293 [1] and with HEK293 [2] was “Non-Toxic” in each case. Moreover, the IC50 amounted to 58.7 µM with Plasmodium falciparum [3] (setting [5]) and 41.9 µM in the data set on Plasmodium falciparum [4] (setting [6]).

On to `CC(=O)OC[C@H]1O[C@@H](OCCCn2cc(COC[C@H]3O[C@@H](O[C@H]4[C@H](OCc5cn(CCCO[C@@H]6O[C@H](COC(C)=O)[C@@H](O)[C@H](O)[C@H]6O[C@@H]6O[C@@H](C)[C@H](OC(C)=O)[C@@H](OC(C)=O)[C@H]6OC(C)=O)nn5)[C@@H](OCc5cnnn5CCCO[C@@H]5O[C@H](COC(C)=O)[C@@H](O)[C@H](O)[C@H]5O[C@@H]5O[C@@H](C)[C@H](OC(C)=O)[C@@H](OC(C)=O)[C@H]5OC(C)=O)[C@H](OCc5cn(CCCO[C@@H]6O[C@H](COC(C)=O)[C@@H](O)[C@H](O)[C@H]6O[C@@H]6O[C@@H](C)[C@H](OC(C)=O)[C@@H](OC(C)=O)[C@H]6OC(C)=O)nn5)O[C@@H]4COCc4cn(CCCO[C@@H]5O[C@H](COC(C)=O)[C@@H](O)[C@H](O)[C@H]5O[C@@H]5O[C@@H](C)[C@H](OC(C)=O)[C@@H](OC(C)=O)[C@H]5OC(C)=O)nn4)[C@H](OCc4cnnn4CCCO[C@@H]4O[C@H](COC(C)=O)[C@@H](O)[C@H](O)[C@H]4O[C@@H]4O[C@@H](C)[C@H](OC(C)=O)[C@@H](OC(C)=O)[C@H]4OC(C)=O)[C@@H](OCc4cn(CCCO[C@@H]5O[C@H](COC(C)=O)[C@@H](O)[C@H](O)[C@H]5O[C@@H]5O[C@@H](C)[C@H](OC(C)=O)[C@@H](OC(C)=O)[C@H]5OC(C)=O)nn4)[C@H]3OCc3cnnn3CCCO[C@@H]3O[C@H](COC(C)=O)[C@@H](O)[C@H](O)[C@H]3O[C@@H]3O[C@@H](C)[C@H](OC(C)=O)[C@@H](OC(C)=O)[C@H]3OC(C)=O)nn2)[C@H](O[C@@H]2O[C@@H](C)[C@H](OC(C)=O)[C@@H](OC(C)=O)[C@H]2OC(C)=O)[C@@H](O)[C@@H]1O`, for which the IC50 was 28.4 µM with Plasmodium falciparum [3] and 12.6 µM with Plasmodium falciparum [4].

For the compound `CC(=O)OC[C@H]1O[C@@H](OCCCn2cc(COc3cc(OCc4cnnn4CCCO[C@@H]4O[C@H](COC(C)=O)[C@@H](O)[C@H](O)[C@H]4O[C@@H]4O[C@@H](C)[C@H](OC(C)=O)[C@@H](OC(C)=O)[C@H]4OC(C)=O)cc(OCc4cnnn4CCCO[C@@H]4O[C@H](COC(C)=O)[C@@H](O)[C@H](O)[C@H]4O[C@@H]4O[C@@H](C)[C@H](OC(C)=O)[C@@H](OC(C)=O)[C@H]4OC(C)=O)c3)nn2)[C@H](O[C@@H]2O[C@@H](C)[C@H](OC(C)=O)[C@@H](OC(C)=O)[C@H]2OC(C)=O)[C@@H](O)[C@@H]1O`, the IC50 in the data set with Plasmodium falciparum [3] (setting [5]) came out at 41.1 µM; with Plasmodium falciparum [4] (setting [6]), 23.6 µM.

Consider `CC(=O)OC[C@H]1O[C@@H](OCCCn2cc(COC[C@H]3O[C@@H](OCc4cn(CCCO[C@@H]5O[C@H](COC(C)=O)[C@@H](O)[C@H](O)[C@H]5O[C@@H]5O[C@@H](C)[C@H](OC(C)=O)[C@@H](OC(C)=O)[C@H]5OC(C)=O)nn4)[C@H](OCc4cnnn4CCCO[C@@H]4O[C@H](COC(C)=O)[C@@H](O)[C@H](O)[C@H]4O[C@@H]4O[C@@H](C)[C@H](OC(C)=O)[C@@H](OC(C)=O)[C@H]4OC(C)=O)[C@@H](OCc4cn(CCCO[C@@H]5O[C@H](COC(C)=O)[C@@H](O)[C@H](O)[C@H]5O[C@@H]5O[C@@H](C)[C@H](OC(C)=O)[C@@H](OC(C)=O)[C@H]5OC(C)=O)nn4)[C@H]3OCc3cn(CCCO[C@@H]4O[C@H](COC(C)=O)[C@@H](O)[C@H](O)[C@H]4O[C@@H]4O[C@@H](C)[C@H](OC(C)=O)[C@@H](OC(C)=O)[C@H]4OC(C)=O)nn3)nn2)[C@H](O[C@@H]2O[C@@H](C)[C@H](OC(C)=O)[C@@H](OC(C)=O)[C@H]2OC(C)=O)[C@@H](O)[C@@H]1O`, for which the half-inhibitory concentration (IC50) in the data set on Plasmodium falciparum [3] (setting [5]) is 13 µM; with Plasmodium falciparum [4] (setting [6]), 21.9 µM.

As for `CCCCCCCCCCCCCCCCO[C@@H]1O[C@H](COC(C)=O)[C@@H](O)[C@H](O)[C@H]1O[C@@H]1O[C@@H](C)[C@H](OC(C)=O)[C@@H](OC(C)=O)[C@H]1OC(C)=O`, the results for the Activity entry in the data set with HEK293 [1] and in the data set on HEK293 [2] were “Non-Toxic” and “Toxic”, respectively. The concentration for half-maximal inhibition (IC50) in the data set on Plasmodium falciparum [3] (setting [5]) was 24.6 µM; in the data set on Plasmodium falciparum [4] (setting [6]), 17.3 µM.

As for `CC(=O)OC[C@H]1O[C@@H](OCCCn2cc(COCCOCc3cn(CCCO[C@@H]4O[C@H](COC(C)=O)[C@@H](O)[C@H](O)[C@H]4O[C@@H]4O[C@@H](C)[C@H](OC(C)=O)[C@@H](OC(C)=O)[C@H]4OC(C)=O)nn3)nn2)[C@H](O[C@@H]2O[C@@H](C)[C@H](OC(C)=O)[C@@H](OC(C)=O)[C@H]2OC(C)=O)[C@@H](O)[C@@H]1O`, the IC50 came to 41.6 µM in the data set on Plasmodium falciparum [3] (setting [5]) and 37.1 µM in the data set on Plasmodium falciparum [4] (setting [6]).
